Measured values as given in US20170232083A1, “METHODS OF DIAGNOSIS AND TREATMENT OF CELIAC DISEASE IN CHILDREN” (priority 2014, published 2017).

Tested on: PBMC (polyclonal gluten-specific T cells) of paediatric and adult CD patients
Assay: IFN-γ ELISpot of PBMC after 3 day oral wheat challenge (SFU, % of maximal peptide response, dominance scores, EC50; Examples 5-6)
Type: cell-based, human
Details: for IFN-γ ELISpot response: after oral wheat challenge; for Cross-reactive T cell response: following wheat challenge
[1] = patient A, 11-17 yrs, cut-off 10 SFU
[2] = patient E, H, 11-17 yrs, cut-off 10 SFU
[3] = patient F, 11-17 yrs, cut-off 10 SFU
[4] = patient G, 11-17 yrs, cut-off 10 SFU
[5] = patient H (HLA-DQ2.5 homozygote), 3-5yrs, cut-off 10 SFU
[6] = patient H, 11-17 yrs, cut-off 10 SFU
[7] = patient ID not given, 11-17 yrs, cut-off 10 SFU
[8] = patient N, 3-5yrs, cut-off 10 SFU
[9] = patient P, 11-17 yrs, cut-off 21.6 SFU
[10] = patient Q, 11-17 yrs, cut-off 10 SFU
[11] = patient U, H, 11-17 yrs, cut-off 10 SFU
[12] = patient V, 6-10 yrs, cut-off 10 SFU
[13] = patient Y, 6-10 yrs, cut-off 10 SFU
[14] = patient eleven, 6-10 yrs, cut-off 10 SFU
[15] = patient four, 3-5yrs, cut-off 10 SFU
[16] = patient seven, 6-10 yrs, cut-off 10.5 SFU
[17] = patient ten, 3-5yrs, cut-off 10 SFU
[18] = patient three, 6-10 yrs, cut-off 10.5 SFU
[19] = patient twelve, 11-17 yrs, cut-off 10 SFU
[20] = patient two, 3-5yrs, cut-off 10 SFU

PFPEQPEQPFPQP
IFN-γ ELISpot response [1]: 4 SFU | Significant response as percentage of maximal peptide SFU (patient D, max peptide 30.5 SFU): ′′ (21-40% = ′′) | IFN-γ ELISpot response [2]: 30 SFU | Significant response as percentage of maximal peptide SFU (patient E, max peptide 224 SFU): ′ (11-20% = ′) | IFN-γ ELISpot response [3]: 32 SFU | Significant response as percentage of maximal peptide SFU (patient F, max peptide 178 SFU): ′ (11-20% = ′) | IFN-γ ELISpot response [4]: 5 SFU | IFN-γ ELISpot response [5]: 19 SFU | IFN-γ ELISpot response [6]: 17 SFU | Significant response as percentage of maximal peptide SFU (patient H, max peptide 17 SFU): + (>70% = +) | IFN-γ ELISpot response [7]: 24 SFU | Significant response as percentage of maximal peptide SFU (patient ID not given, max peptide 95 SFU): ′′ (21-40% = ′′) | Significant response as percentage of maximal peptide SFU (patient J, max peptide 196 SFU): ′′ (21-40% = ′′) | Significant response as percentage of maximal peptide SFU (patient K, max peptide 53 SFU): ′′ (21-40% = ′′) | Significant response as percentage of maximal peptide SFU (patient M, max peptide 48 SFU): ′′ (21-40% = ′′) | IFN-γ ELISpot response [8]: 2 SFU | IFN-γ ELISpot response [9]: 8 SFU | IFN-γ ELISpot response [10]: 35 SFU | Significant response as percentage of maximal peptide SFU (patient Q, max peptide 97 SFU): ′′ (21-40% = ′′) | IFN-γ ELISpot response [11]: 13 SFU | Significant response as percentage of maximal peptide SFU (patient U, max peptide 81 SFU): ′ (11-20% = ′) | IFN-γ ELISpot response [12]: 16 SFU | Significant response as percentage of maximal peptide SFU (patient V, max peptide 35 SFU): ′′′ (41-70% = ′′′) | IFN-γ ELISpot response [13]: 4 SFU | IFN-γ ELISpot response [14]: 4 SFU | Significant response as percentage of maximal peptide SFU (patient five, max peptide 48 SFU): ′′ (21-40% = ′′) | IFN-γ ELISpot response [15]: 6 SFU | IFN-γ ELISpot response [16]: 9 SFU | IFN-γ ELISpot response [17]: 5 SFU | IFN-γ ELISpot response [18]: 51 SFU | IFN-γ ELISpot response [19]: 11 SFU | IFN-γ ELISpot response [20]: 24 SFU | Significant response as percentage of maximal peptide SFU (patient two, max peptide 60 SFU): ′′ (21-40% = ′′)

PEQPFQPEQPFPQQ
Cross-reactive T cell response (subject A, 11-17yrs): 2 SFU | Cross-reactive T cell response (subject D, 11-17yrs): 1 SFU | Significant response as a percentage of maximal peptide SFU (subject E, 11-17yrs): (6-10% - ^) | Cross-reactive T cell response (subject E, 11-17yrs): 12 SFU | Cross-reactive T cell response (subject F, 11-17yrs): 6 SFU | Cross-reactive T cell response (subject G, 11-17yrs): 5 SFU | Cross-reactive T cell response (subject H): 3 SFU | Cross-reactive T cell response (subject I (3-5yrs/6-10yrs part)): 1 SFU | Significant response as a percentage of maximal peptide SFU (subject J): ′ (11-20% = ′) | Cross-reactive T cell response (subject J (3-5yrs/6-10yrs part)): 31 SFU | Cross-reactive T cell response (subject K (3-5yrs/6-10yrs part)): 8 SFU | Cross-reactive T cell response (subject P, 11-17yrs): 9 SFU | Cross-reactive T cell response (subject Q, 11-17yrs): 7 SFU | Significant response as a percentage of maximal peptide SFU (subject T, 11-17yrs): ′ (11-20% = ′) | Cross-reactive T cell response (subject T, 11-17yrs): 11 SFU | Cross-reactive T cell response (subject U, 11-17yrs): 6 SFU | Cross-reactive T cell response (subject V (3-5yrs/6-10yrs part)): 7 SFU | Cross-reactive T cell response (subject W (3-5yrs/6-10yrs part)): 3 SFU | Cross-reactive T cell response (subject Y (3-5yrs/6-10yrs part)): 1 SFU | Cross-reactive T cell response (subject five (3-5yrs/6-10yrs part)): 3 SFU | Cross-reactive T cell response (subject nine, 11-17yrs): 0 SFU | Cross-reactive T cell response (subject seven (3-5yrs/6-10yrs part)): 7 SFU | Cross-reactive T cell response (subject six (3-5yrs/6-10yrs part)): 2 SFU | Significant response as a percentage of maximal peptide SFU (subject ten): + (>70% = +) | Cross-reactive T cell response (subject ten (3-5yrs/6-10yrs part)): 12 SFU | Cross-reactive T cell response (subject two (3-5yrs/6-10yrs part)): 6 SFU

GLERPWQEQPLPPQ
IFN-γ ELISpot response [1]: 4 SFU | IFN-γ ELISpot response [2]: 0 SFU | IFN-γ ELISpot response [3]: 0 SFU | IFN-γ ELISpot response [4]: 0 SFU | IFN-γ ELISpot response [5]: 0 SFU | IFN-γ ELISpot response [6]: 16 SFU | Significant response as percentage of maximal peptide SFU (patient H, max peptide 17 SFU): + (>70% = +) | IFN-γ ELISpot response [7]: 1 SFU | IFN-γ ELISpot response [8]: 0 SFU | IFN-γ ELISpot response [9]: 7 SFU | IFN-γ ELISpot response [10]: 22 SFU | Significant response as percentage of maximal peptide SFU (patient Q, max peptide 97 SFU): ′′ (21-40% = ′′) | IFN-γ ELISpot response [11]: 1 SFU | IFN-γ ELISpot response [12]: 7 SFU | IFN-γ ELISpot response [13]: 9 SFU | IFN-γ ELISpot response [14]: 1 SFU | IFN-γ ELISpot response [15]: 6 SFU | IFN-γ ELISpot response [16]: 11 SFU | Significant response as percentage of maximal peptide SFU (patient seven, max peptide 27 SFU): ′′′ (41-70% = ′′′) | IFN-γ ELISpot response [17]: 5 SFU | IFN-γ ELISpot response [18]: 3 SFU | IFN-γ ELISpot response [19]: 2 SFU | IFN-γ ELISpot response [20]: 1 SFU
